Data: US11331338B2, “Hydrogen sulfide releasing polymer compounds” (CROMA-PHARMA GESELLSCHAFT M.B.H., priority 2016, dated 2022)

Experiments:
[1] = Olfactory test for H2S liberation; settings: dissolved in acetone/phosphate buffer, excess L-cysteine
[2] = Detection of released H2S by embrowning Pb-acetate paper after thiol addition; settings: excess amounts of L-cysteine or cysteamine
Description: 850 mg polymer was obtained as a white, fibrous product with an estimated molecular weight of 270 kDa (based on the starting material) and a degree of modification with H2S releasing perthiol structures of […] polymer. This corresponds to a conversion rate of 98% of the thiol moieties of the polymer used as starting material. […] Emerging H2S was detected by embrowning Pb-acetate paper.
This finding was later confirmed by detecting H2S release after addition of excess amounts of L-cysteine or cysteamine to 4-amino-N-(benzoylthio)benzamide via embrowning Pb-acetate paper.

[3] = test system: immortalized human microvascular endothelial cells (HMEC-1); assay: Cell compatibility / proliferation (WST-1); format: cell-based; settings: HMEC-1 compared with the other cell types
From the text: In order to study cell compatibility, especially the effect of proliferation, the H2S releasing hyaluronic acid derivative according to FIG. 1A (s. above,) was investigated in comparison with unmodified HA (sodium salt of hyaluronic acid, “NA HA”) and an […] thiolated hyaluronic acid (“Thiomer CAPPY”). As further control, the well established commercially available H2S donor N-(benzoylthio)benzamide (Donor 5a is NSHD1, a small molecule with a thiol activation mechanism) was included in the experiments.
Three types of skin cells were used as models: primary human dermal fibroblasts (dFb), the immortalized line of human microvascular endothelial cells (HMEC-1) and the keratinocyte cell line HaCat. The cells were cultured in their appropriate medium. Synthetic medium Fibrolife with supplements and gentamycin was used for dFb, EBM+supplements was used for HMEC-1 and DMEM with 10% FCS and 1% CellShield was used for HaCat cells. Furthermore, 3 mM cysteine was added to all conditions investigated. […] Cells were seeded and grown at least overnight before medium was changed and the HA components were added according to the agreed protocol. […] Cell proliferation was measured indicated by using a WST-1-based colorimetric detection reagent according to manufacturers' protocol with fresh medium without addition of any HA-derivative. […]

| Compound | H2S liberation, olfactory test [1] | H2S release detected by Pb-acetate paper [2] | sensitivity of endothelial cells to H2S [3] |
| --- | --- | --- | --- |
| Nc1ccc(C(=O)NSC(=O)c2ccccc2)cc1 [4-amino-N-(benzoylthio)benzamide] | indicated H2S liberation | H2S release |  |
| O=C(NSC(=O)c1ccccc1)c1ccccc1 [Donor 5a, N-(benzoylthio)benzamide] |  |  | most sensitive |
